According to patent publication US20190151236A1, “LIPOSOMAL CORTICOSTEROIDS FOR TOPICAL INJECTION IN INFLAMED LESIONS OR AREAS” (ENCELADUS PHARMACEUTICALS B.V., priority 2016, published 2019):
Where two headings read alike, the source gives them in different places.

Assays:
cataract formation = test: Cataract formation on slit lamp biomicroscopy on day 31 (LOCS scale) in the rabbit uveitis study; settings: day 31, slit lamp, FIG. 4
Procedure: Clinical examination was performed by 2 masked independent investigators. Slit-lamp biomicroscopy, measurement of intraocular pressure with the Tonopen, photography of the anterior segment and dilated fundal examination with binocular indirect ophthalmoscopy using a 20D lens were performed prior to uveitis induction and at 8 defined time points thereafter (Days 0, 1, 3, 4, 8, 9, 11, 16, 24 and 31). Clinical severity of uveitis was scored by evaluating anterior chamber cells/flares, vitreous haze, and iris vessels. […] The combined anterior segment inflammatory score was defined as the sum of the scores for iris vessels, anterior chamber cells and anterior chamber flare. The presence of cataract was determined on slit lamp biomicroscopy on day 31 and graded based on the LOCS scale.

For `C[C@]12C=CC(=O)C=C1CC[C@@H]1[C@@H]2[C@@H](O)C[C@@]2(C)[C@H]1CC[C@]2(O)C(=O)COP(=O)(O)O` [Free PP, prednisolone phosphate], the “Combined anterior segment inflammatory score” value (experimental uveitis; Day 1 after 1st intravitreal induction, before intervention (baseline), mean ± SD, sum of iris congestion (0-3), anterior chamber cells (0-4), flare (0-3)) was 8.6 ± 0.5, the “Combined anterior segment inflammatory score” value (experimental uveitis; Day 3, at intervention (baseline, maximum inflammation)) was 8.0 ± 0.7 and the “Combined anterior segment inflammatory score” value (experimental uveitis; Day 4, one day after intervention (single 0.1 ml subconjunctival injection 4 mg/ml, or eye drops 4 drops per day)) was 6.0 ± 0.7. The “Combined anterior segment inflammatory score” value (experimental uveitis; Day 8, 5 days after intervention, before 2nd intravitreal induction) was 3.2 ± 0.4, the “Combined anterior segment inflammatory score” value (experimental uveitis; Day 9, 1 day after 2nd intravitreal induction) was 8.0 ± 1.2 and the “Combined anterior segment inflammatory score” value (experimental uveitis; Day 11, 3 days after rechallenge of intravitreal TB antigen) was 7.0 ± 2.3. The “Combined anterior segment inflammatory score” value (experimental uveitis; Day 16, 2 weeks post treatment) was 5.4 ± 1.3, the “Combined anterior segment inflammatory score” value (experimental uveitis; Day 24) was 2.8 ± 0.4 and the “Combined anterior segment inflammatory score” value (experimental uveitis; Day 31) was 2.2 ± 1.3. For the same compound, the “Cataract formation (posterior subcapsular cataracts)” value (cataract formation) was “trend towards higher rates”.
